{"source": "patent US8697081B2", "about": "“Method of modulating neovascularization” (The Regents of the University of Michigan, priority 2008, dated 2014)", "key": {"human endothelial cells": {"test_system": "human endothelial cells", "experiment": "Cell morphology, migration and cell number of endothelial cells in 3-D fibrin gel", "type": "cell-based", "settings": "2 days, 50 μM blebbistatin", "experimental": "Endothelial cells were isolated from human umbilical cord veins by collagenase digestion and cultured in Medium 199 (Gibco) containing 20% human serum, 50 μg/ml endothelial cell growth supplement (BD Biosciences), 100 U/ml penicillin, and 100 μg/ml streptomycin (Hiraoka et al. 1998. Cell, 95(3): 365-377). […]\nThe effect of Fn matrix assembly, or lack thereof, on endothelial cell function during neovascularization was assessed. […]\n(Chernousov et al. 1991. J. Biol. Chem., 266(17): 10851-10858; Tomasini-Johansson et al. 2001. J. Biol. Chem., 276(26): 23430-23439; Mao and Schwarzbauer. 2005. Matrix Biol., 24(6): 389-399; and Tomasini-Johansson et al. 2006. Matrix Biol., 25(5): 282-293). […] Cell number in 3-D cultures was determined by hemacytometry after dissolving gels with 2 mg/ml bacterial collagenase (Worthington) while the number of patent tubules was determined in randomly selected cross-sections. Fn matrix assembly and cell morphology were monitored by confocal laser microscopy. To examine cell migration, endothelial cells were embedded in a 100 μl fibrin gel for 2 hours, then placed within a 500 μl gel for 8 days in the presence of Del29, FUD, control IgG, or L8, after which migration from the inner gel was assessed. […]"}, "[1]": {"test_system": "chorioallantoic membrane (CAM) of live chicks", "experiment": "Chick chorioallantoic membrane (CAM) angiogenesis into 3-D matrices", "type": "in vivo", "settings": "3 days, VEGF and HGF, versus Del29 control", "experimental": "The functional role for fibrillogenesis in tissue sites undergoing active angiogenesis in vivo was assessed. To this end, 3-D composite gels of fibrin and type I collagen were placed atop the chorioallantoic membrane (CAM) of live chicks, and angiogenesis was initiated in the presence of FUD or the Del29 peptide control. In particular, 3-D matrices of type I collagen or a type I collagen/fibrin composite matrix were cast in transwell tissue culture inserts (24 well size) perforated with a 25 gauge needle. A 30 μl Matrigel (BD Biosciences) reservoir was placed atop the matrix containing 200 ng VEGF, 100 ng HGF, and either Del29 or FUD. The entire apparatus was placed atop the dropped CAM of 10-11 day old fertile chicken eggs. Following incubation in a humidified incubator at 37° for 3 days, the matrices were harvested. Vascular ingrowth was monitored by light microscopy following H&E staining. In some experiments, FITC-Fn (McKeown-Longo and Mosher. 1985. J. Cell. Biol., 100(2): 364-74) was supplemented in the matrices during the culture period, and Fn fibrillogenesis within the gels was monitored by confocal laser microscopy."}}, "data": [{"compound": "Cc1ccc2c(c1)C(=O)C1(O)CCN(c3ccccc3)C1=N2", "note": "(stereo not drawn) [blebbistatin]", "values": [{"measurement": "cell shape change", "setting": "human endothelial cells", "value": "failed to undergo"}]}, {"compound": "FUD: 49-residue functional upstream domain of Streptococcus pyogenes F1 adhesion protein, SEQ ID NO: 10; fibronectin fibril assembly inhibitor (KDQSPLAGESGETEYITEVYGNQQNPVDIDKKLPNETGFSGNMVETEDT; Streptococcus pyogenes; Functional Upstream Domain (FUD) of F1 adhesion protein)", "values": [{"measurement": "Fn matrix assembly in ECM construct", "setting": "[1]", "value": "almost completely inhibited"}, {"measurement": "neovessel formation (vascular ingrowth)", "setting": "[1]", "value": "ablated"}]}]}
